Experimental data reported in patent publication US20260217983A1, “SULFONIUM SALT PHOTOINITIATORS AND METHODS OF LED CURING A COMPOSITION WITH SAID SULFONIUM SALT PHOTOINITIATORS” (ARKEMA FRANCE, priority 2022, published 2026).

Legend:
[1] = Belt curing performance (thumb-twist depth cure) in hybrid acrylate/epoxy resin; details: for Cure speed in hybrid acrylate/epoxy resin: 24 μm film, under air, PI 2 wt %
Experimental: (§1) The photoinitiators were dissolved either in neat UViCure S105E resin or a hybrid acrylate/epoxy resin (prepared by mixing 60 wt parts UViCure S105E, 15 wt parts UViCure S130 and 25 wt parts SR492; all product are available from Sartomer). Formulations were prepared by combining all materials in the given proportions and then stirring at 30-40° C. until the samples were fully homogeneous; the formulations were then allowed to cool to room temperature. For all experiments, the formulations were cured on Leneta Form 3N-31 gloss finish paper at 6 μm and 24 μm film thickness using a belt-cure instrument; the films were prepared using a K-bar. All films were then cured under an LED lamp at a given belt speed. ‘Depth cure’ for each formulation was assessed using the ‘thumb-twist’ test (where no visible mark is made when a thumb is pressed down firmly onto the coating with a twisting motion), and from the belt speed; the calculated cure speed (in m/min) is given.

[2] = FTIR-ATR cure test of cationic formulations (epoxide, oxetane conversion, 1100 cm^-1 peak growth); details: 405 nm, cationic systems
Experimental: Matrixes: In a 1000 mL of metal can, formulation matrix was charged according to the percentage in Table 12. The 1000-1005 g mixture of each matrix sample was prepared and mixed by mechanical mixer for about 1 hour around 60° C. until the solution became clear. Formulations: In a white max 50 jar from FlackTek Inc., photoinitiator and propylene carbonate were loaded at first, mixed by hand with stainless steel spatula, placed in 60° C. oven for about 1 h, mixed again until it became clear. Then, formulation matrix was charged according to the percentage in one of Table 13 to 21. The […]-52.60 g mixture of each sample was prepared and mixed for 3 minutes at 3000 RPM in Speed Mixer from FleackTec Inc. Then, all jars were placed in 60° C. oven for about 2 h, taken out and immediately mixed for another 2 minutes until the solution became clear.
A Fourier Transform Infrared (FTIR) with an Attenuated Total Reflection (ATR) setup was used. All polymerization rate measurements were performed using Nicolet iS50 FT-IR Spectrometer from Thermo Scientific, equipped with a standard DLaTGS detector. A lamp holder for the ART platform of FTIR unit can be customized and printed from Arkema N3xtDimention® engineered resin N3D-TOUGH784 in order to ensure precisely fit of a 365 nm lamp Accucure ULM-2-365 or a 405 nm lamp Accucure ULM-2-405 from Digital Light Labs. On the bottom of this lamp holder, a dry air channel is built in to allow air uniformly blowing over sample surface, the gas flow rate can be controlled over a rotameter. The LED light was manually triggered by Ultraviolet illumination & Measurement System. LED light exposure can be programed by AccuCure software. For measurement, 25 μL of liquid sample was placed in the center of an ATR crystal. 3 mil of thin film was prepared by a customized coating applicator (3 mil WFM, G1046 from BYK). The LED lamp with holder was place on the top of ART platform. Then FTIR scan was initiated to collect liquid IR spectrum at first. Each IR spectrum of a specific exposure time at 10 mW/cm^2 of LED light were collected. Measurements of acrylate conversion were taken at the peak height under the reference peak around 1727 cm^−1; the acrylate peak of SR833S at approximately 1407 cm^−1, the epoxide peak of UviCure S105 at approximately 790 cm^−1, and the oxetane peak of UViCure S130 at approximately 970 cm^−1 were also measured. Since the ring opening of both epoxide and oxetane generated C—O—C bond, the growth of C—O—C IR peak height at ~1100 cm^−1 was monitored as well. The resulting of peak 1100 cm^−1 growth rate could be calculated to assess total cationic cure speed. Peak heights were determined using the same baseline where a baseline is chosen to be the two lowest points between 600 cm^−1 and 1800 cm^−1. The peak height under the peak and above the baseline was then determined. The integration limits for liquid and the cured sample are not identical but are similar, especially for the reference peak.
The ratios of the acrylate peak height, epoxide peak height, ring opening peak height from both epoxide and oxetane to the reference peak height were determined for both the liquid and the cured samples. Degree of cure or conversion or peak growth rate, expressed as percentage reacted acrylate or epoxide or ring opening of both epoxide and oxetane, was calculated from the equation below: […]
Where Rliq is the peak height ratio of the liquid sample and Rc is the peak height ratio of the LED cured sample. The resulting acrylate and epoxide conversions or C—O—C growth rates were collected and listed in Tables 13 to 21, plotted in FIG. 1 to 8 and FIG. 10.

[3] = Molar extinction coefficient in acetonitrile; type: physicochemical
Experimental: The curing performance of individual products prepared above was assessed using real time FT-IR measurement. The photoinitiators were dissolved in cycloaliphatic epoxy resin UViCure S105 (available from Sartomer) at the indicated wt % loading, applied onto the FT-IR measurement plate and irradiated with the indicated LED light source. The polymerization rate and final reactive group conversion were determined by monitoring the change of the relevant infrared band near 900 cm^−1 corresponding to an epoxide ring during irradiation. The molar extinction coefficients for the photoinitiator products (ε, expressed in M^−1 cm^−1) were determined in acetonitrile at 10^-3 M or 10^-5 M concentration.

[4] = Colour index 'b' of formulations before and after polymerization; type: physicochemical; details: UViCure S105E, thin samples (20 μm), under air, 300 s irradiation
Experimental: The low yellowing characteristics can be measured by the Colour index ‘b’ value on cured films.
Formulations comprising the photoinitiators and neat UViCure S105E resin were prepared as described at example 2.

[5] = Belt curing performance (thumb-twist depth cure) in UViCure S105E resin; details: 24 μm film, under air, PI 2 wt %
Experimental: as §1

[6] = Thermal stability by DSC in TMPTA resin; type: physicochemical; details: DSC at 10° C./min, loading 1 wt %
Experimental: Formulations comprising the photoinitiators and neat UViCure S105E resin and/or TMPTA resin were prepared as described at example 2.

[7] = Working-curve measurement (Ec, Dp) on 405 nm DLP printers; details: at lower concentration
Experimental: Working-curves were printed on the 405 nm~3 mW/cm^2 Flashforge Hunter DLP printer or on the 405 nm~12 mW/cm^2 B9 Core 550 DLP printer from B9Creation. Various energy dosages were irradiated in sections of the build area (without a build platform installed), resulting in individual squares or thin films being cured. The thickness of the individual thin films were measured with a low force digital caliper+comparator stand from Mitutoyo to determine the cure depths. A plot of the cure depths vs. the logarithm of energy dosages was used to determine the critical exposure (Ec, mJ/cm^2) and penetration depth (Dp, mils).

[8] = LED 365 nm, 100% intensity (=70.1 mJ/cm^2), belt speed 40 m/min
[9] = LED 395 nm, 80 m/min, 50% intensity (=36.9 mJ/cm^2)
[10] = LED 395 nm, 40 m/min, 100% intensity (=164.5 mJ/cm^2)

SMILES	Cure speed in hybrid acrylate/epoxy resin [1, 8] [m/min]	Cure speed in hybrid acrylate/epoxy resin [1, 9] [m/min]	cationic cure compared with 2 (comp.) or 4 (comp.) [2]	epoxide, oxetane and total cationic cure compared with Omnicat550 and SC992 [2]	ε at 365 nm [3] [M⁻¹ cm⁻¹]	ε at 385 nm [3] [M⁻¹ cm⁻¹]	Colour index ‘b’ value After Polymerization ([4]; LED @365 nm (120 mW/cm^2))	Colour index ‘b’ value Before Polymerization ([4]; LED @365 nm (120 mW/cm^2))	Colour index ‘b’ value After Polymerization ([4]; LED @385 nm (160 mW/cm^2))	Colour index ‘b’ value Before Polymerization ([4]; LED @385 nm (160 mW/cm^2))	Cure speed in UViCure S105E resin [5, 8] [m/min]	Cure speed in UViCure S105E resin [5, 10] [m/min]	onset temperature of thermal polymerisation [6] [°C]	Dp and Ec compared with 4 (comp.) [7]	belt cure speed compared with photoinitiator 1 ([1]; at 80 m/min in hybrid acrylate/epoxy resin at both 365 nm and 395 nm)
CC(C)c1ccc2sc3ccc(-[s+]4c5ccccc5c(=O)c5cc(C(C)C)ccc54)cc3c(=O)c2c1 (stereo not drawn) [Photoinitiator 1, 9-oxo-10-[9-oxo-7-(propan-2-yl)-9H-thioxanthen-2-yl]-2-(propan-2-yl)-9H-thioxanthen-10-ium hexafluorophosphate]	20.0	40.0	performed slightly better than 2 (comp.) or 4 (comp.)	better epoxide cure, oxetane cure as well as total cationic cure than both Omnicat550 and SC992	23380	23514	8.81	6.38	8.71	6.13	12.2	20.0	150		
Cc1ccc([S+](c2ccc(C(=O)c3ccccc3)cc2)c2ccc3sc4ccc(C(C)C)cc4c(=O)c3c2)cc1 (stereo not drawn) [Photoinitiator 2, (4-benzoylphenyl)(4-methylphenyl)[9-oxo-7-(propan-2-yl)-9H-thioxanthen-2-yl]sulfonium Hexafluorophosphate]	11.1	16.4		better epoxide cure, oxetane cure as well as total cationic cure than both Omnicat550 and SC992	14201	14921	6.31	6.48	6.26	6.49	4.6	10.0	170		
CCc1cc(CC)c2sc3ccc([S+](c4ccc(C)cc4)c4ccc(C(=O)c5ccccc5)cc4)cc3c(=O)c2c1 (stereo not drawn) [Photoinitiator 4, (4-benzoylphenyl)(5,7-diethyl-9-oxo-9H-thioxanthen-2-yl)(4-methylphenyl)sulfonium Hexafluorophosphate]	17.8	15.1		better epoxide cure, oxetane cure as well as total cationic cure than both Omnicat550 and SC992	13154	13649	6.05	6.33	6.09	6.28	3.7	5.2			
CCCOc1ccc(Cl)c2c(=O)c3cc(-[s+]4c5ccccc5c(=O)c5c(Cl)ccc(OCCC)c54)ccc3sc12 (stereo not drawn) [Photoinitiator 5, 1-chloro-10-(8-chloro-9-oxo-5-propoxy-9H-thioxanthen-2-yl)-9-oxo-4-propoxy-9H-thioxanthen-10-ium Hexafluorophosphate]	40.0	80.0	performed slightly better than 2 (comp.) or 4 (comp.)	better epoxide cure, oxetane cure as well as total cationic cure than both Omnicat550 and SC992	37326	23429	4.92	5.02	4.91	5.35	13.3	13.3	165	lower Op and higher Ec than 4 (comp.)	superior cure speed
